# Measurements reported in PubChem BioAssay (NCI).
#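 How tested: cells in 96-well plates exposed to compound for 48 hours at five concentrations. The concentration for 50% growth inhibition is given as GI50. TGI: concentration producing complete growth inhibition.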
# Columns and labels:
# Test in all cases: DTP human tumour cell line panel, 48 h
# TK-10 renal = system: TK-10 renal
# HS 578T breast = system: HS 578T breast
# EKVX NSCLC = system: EKVX NSCLC
# CCRF-CEM leukemia = system: CCRF-CEM leukemia
# KM12 colon = system: KM12 colon
# SF-539 CNS = system: SF-539 CNS
# SK-MEL-2 melanoma = system: SK-MEL-2 melanoma
# SK-OV-3 ovarian = system: SK-OV-3 ovarian
# LOX IMVI melanoma = system: LOX IMVI melanoma
# SNB-75 CNS = system: SNB-75 CNS
Structure (SMILES),GI50 (TK-10 renal) [µM],TGI (TK-10 renal) [µM],GI50 (HS 578T breast) [µM],TGI (HS 578T breast) [µM],GI50 (EKVX NSCLC) [µM],TGI (EKVX NSCLC) [µM],GI50 (CCRF-CEM leukemia) [µM],TGI (CCRF-CEM leukemia) [µM],GI50 (KM12 colon) [µM],TGI (KM12 colon) [µM],GI50 (SF-539 CNS) [µM],TGI (SF-539 CNS) [µM],GI50 (SK-MEL-2 melanoma) [µM],TGI (SK-MEL-2 melanoma) [µM],GI50 (SK-OV-3 ovarian) [µM],TGI (SK-OV-3 ovarian) [µM],GI50 (LOX IMVI melanoma) [µM],TGI (LOX IMVI melanoma) [µM],GI50 (SNB-75 CNS) [µM],TGI (SNB-75 CNS) [µM]
O=C(Nc1ccc(Cl)c(C(F)(F)F)c1)c1ccc(NC2=C(Cl)C(=O)N(Cc3ccccc3)C2=O)cc1,19.4,34.4,2.43,5.67,11.5,34.5,1.98,6.07,20.3,47.3,8.92,23.9,13.8,38.7,26.9,60.5,1.24,2.63,13.8,33.9
COc1ccc(C2=C(c3ccc(OC)cc3)C(=O)N3CCCC3C2)cc1 (configuration not stated),22.8,> 100,69.5,> 100,30.2,> 100,5.49,> 48.2,9.26,> 100,7.95,77.1,18.3,> 100,26.4,> 100,3.87,25.6,15.6,> 72.7
O=C1c2cccc3cccc(c23)C(=O)N1CCCCCN1CCN(CCCCCOc2ccc(-c3nc4ccc(N5CCOCC5)cc4[nH]3)cc2)CC1,8.24,14.8,21.8,45.4,> 47.1,> 74.6,1.31,8.97,2.15,4.29,10.6,29,10.7,32.8,> 100,> 100,3.01,7.97,18.3,34.6
CN1CC[C@@H](c2c(O)cc(O)c3c(=O)cc(-c4ccc(C(F)(F)F)cc4Cl)oc23)[C@@H]1CO,14.7,43.5,11.8,33.6,13.9,37.5,23.4,70.2,13.7,30.4,13.7,28.8,18.1,41,26.6,70,11.9,25.6,6.89,22
Cc1cc2cc3c(=O)[nH]c(=O)[nH]c3nc2cc1C,–,> 100,–,> 100,–,> 100,–,–,–,> 100,–,> 100,–,> 100,–,> 100,–,> 100,–,90
COC(=O)c1cc2c(s1)-c1nccc3c1c(nc1ccccc13)C2=O,> 100,> 100,28.2,> 100,> 100,> 100,> 100,> 100,69.4,> 100,–,–,> 100,> 100,> 100,> 100,29,> 100,–,–
O=C(O)c1ccc(C(=O)O)c2c(C(=O)O)ccc(C(=O)O)c12,–,> 100,–,> 100,–,> 100,–,–,–,> 100,–,> 100,–,> 100,–,> 100,–,> 100,–,> 100
CN(C)CCSc1cc(-c2ccccc2)c2ccccc2n1,–,19.4,–,21.9,–,30.3,–,33.3,–,29,–,23,–,28.6,–,15.9,–,26.6,–,–
CC(C)=CCc1cc2c(cc1O)OC[C@H]1c3cc4c(cc3O[C@@H]21)OCO4,–,> 100,–,75.5,–,76.9,–,80.8,–,> 100,–,> 100,–,–,–,> 100,–,31.7,–,> 100
CC(C(=O)O)c1cccc(Oc2ccccc2)c1 (configuration not stated),> 100,> 100,> 100,> 100,> 100,> 100,> 100,> 100,> 100,> 100,> 100,> 100,–,–,> 100,> 100,> 100,> 100,> 100,> 100
O=[N+]([O-])c1cccc2ccc(N/N=C/c3ccccc3O)nc12,> 100,> 100,72.4,> 100,> 100,> 100,–,–,> 100,> 100,> 100,> 100,> 100,> 100,> 100,> 100,> 100,> 100,> 37.8,> 70.6
COC(=O)c1ccc2c(c1)/C(=C\c1cc(Br)c(O)c(Br)c1)C(=O)N2,6.79,> 23.3,4.75,> 22.6,15.8,> 25,5.98,> 25,6.79,> 25,5.85,> 25,–,–,6.57,> 25,4.13,> 25,5.4,> 25
COc1ccc(/C(=C\C=C(C#N)C#N)Sc2nc3ccccc3s2)cc1,5.43,11.8,31.2,> 50,10.5,22,–,–,10.6,31.3,1.19,2.59,34.1,> 50,14.3,29.5,–,–,–,–
Cn1cc(-c2csc(-c3c[nH]c4ccc(Br)cc34)n2)c2cnccc21,1.97,5.84,2.47,5,2.5,6.37,0.422,1.86,2.33,5.48,2.14,4.6,2.58,6.35,–,–,–,–,–,–
C[C@@]12CCC[C@@](C)(C(=O)O)C1CC[C@]13CC(=O)[C@](CO)(C1)[C@@H](O)CC32 (some centres not stated),> 100,> 100,> 100,> 100,> 100,> 100,–,–,> 100,> 100,> 100,> 100,> 100,> 100,> 100,> 100,> 100,> 100,> 100,> 100
